# According to article PMC11183114, “Structural basis of S-adenosylmethionine-dependent allosteric transition from active to inactive states in methylenetetrahydrofolate reductase” (Nature Communications, 2024):
# Numbering of substitutions follows the chain as printed. Like-named read-outs stand apart in the source and are kept apart here.
# Experiments:
# [1] = biological target: T1, methylenetetrahydrofolate reductase (cMTHFR) (Thermochaetoides thermophila, UniProt G0S5U9); assay: NADH-menadione oxidoreductase assay, purified enzyme ([…] NADH); type: biochemical
# T1 construct: gene CTHT_0033700; cMTHFR^wt
# T1 sequence (G0S5U9 1-614): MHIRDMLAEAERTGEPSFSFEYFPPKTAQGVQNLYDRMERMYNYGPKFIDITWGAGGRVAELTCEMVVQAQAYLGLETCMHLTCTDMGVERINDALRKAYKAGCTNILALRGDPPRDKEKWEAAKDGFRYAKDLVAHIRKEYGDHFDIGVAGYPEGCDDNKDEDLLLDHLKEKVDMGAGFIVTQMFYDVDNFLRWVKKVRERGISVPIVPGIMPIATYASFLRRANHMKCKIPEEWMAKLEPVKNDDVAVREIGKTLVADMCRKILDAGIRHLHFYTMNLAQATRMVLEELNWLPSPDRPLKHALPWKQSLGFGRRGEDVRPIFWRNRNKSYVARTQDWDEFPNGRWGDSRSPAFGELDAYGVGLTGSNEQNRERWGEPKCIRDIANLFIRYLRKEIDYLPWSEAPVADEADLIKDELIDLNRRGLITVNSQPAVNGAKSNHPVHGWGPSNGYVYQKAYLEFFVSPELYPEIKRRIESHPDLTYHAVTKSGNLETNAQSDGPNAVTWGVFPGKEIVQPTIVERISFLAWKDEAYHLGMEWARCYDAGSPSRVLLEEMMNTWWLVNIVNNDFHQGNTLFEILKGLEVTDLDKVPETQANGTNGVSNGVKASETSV
# [2] = biological target: T1, methylenetetrahydrofolate reductase (cMTHFR); assay: NADPH-menadione oxidoreductase assay, purified enzyme ([…] NADPH); type: biochemical
# [3] = biological target: T2, methylenetetrahydrofolate reductase (cMTHFR) (Thermochaetoides thermophila, UniProt G0S5U9, R315A); assay: X-ray crystal structure, […] Å (T-state); type: binding; design: gene CTHT_0033700; cMTHFR^R315A
# T2 sequence (G0S5U9 1-614 R315A): T1 sequence (G0S5U9 1-614) with R315A
# [4] = biological target: T3, methylenetetrahydrofolate reductase (cMTHFR) (Thermochaetoides thermophila, UniProt G0S5U9, E21Q/L393M/V516F); assay: X-ray crystal structure, […] Å (R-state); type: binding
# T3 construct: gene CTHT_0033700; cMTHFR^E21Q, L393M, V516F, surface lysines reductively methylated
# T3 sequence (G0S5U9 1-614 E21Q/L393M/V516F): T1 sequence (G0S5U9 1-614) with E21Q, L393M, V516F
# [5] = biological target: T2, methylenetetrahydrofolate reductase (cMTHFR); assay: X-ray crystal structure, […] Å (T-state); type: binding; design: gene CTHT_0033700; cMTHFR^R315A, homodimer; two AdoMet per regulatory domain
# Text: Unexpectedly, two molecules of AdoMet were found
# [6] = biological target: T1, methylenetetrahydrofolate reductase (cMTHFR); assay: UV-Vis titration (FAD absorbance quench at […] nm, Hill fit, coefficient […]); […] also inhibits NADPH-menadione oxidoreductase activity by […]; type: binding
smiles,measurement,setting,value
NC(=O)C1=CN([C@@H]2O[C@H](COP(=O)(O)OP(=O)(O)OC[C@H]3O[C@@H](n4cnc5c(N)ncnc54)[C@H](O)[C@@H]3O)[C@@H](O)[C@H]2O)C=CC1 [NADH],"NADH-menadione oxidoreductase assay, purified enzyme (100 μM NADH)",[1],44 µM/min
NC(=O)C1=CN([C@@H]2O[C@H](COP(=O)(O)OP(=O)(O)OC[C@H]3O[C@@H](n4cnc5c(N)ncnc54)[C@H](OP(=O)(O)O)[C@@H]3O)[C@@H](O)[C@H]2O)C=CC1 [NADPH],"NADPH-menadione oxidoreductase assay, purified enzyme (100 μM NADPH)",[2],120 µM/min
Cc1cc2nc3c(=O)[nH]c(=O)nc-3n(C[C@H](O)[C@H](O)[C@H](O)COP(=O)(O)OP(=O)(O)OC[C@H]3O[C@@H](n4cnc5c(N)ncnc54)[C@H](O)[C@@H]3O)c2cc1C [FAD],"X-ray crystal structure, 2.8 Å (T-state)",[3],"the si-face of FAD is occluded by Tyr361 on the C-terminal region of the linker, which forms a π-stacking interaction"
same,"X-ray crystal structure, 3.4 Å (R-state)",[4],Electron density for FAD was observed in every catalytic active site.
C[S@@+](CC[C@H](N)C(=O)[O-])C[C@H]1O[C@@H](n2cnc3c(N)ncnc32)[C@H](O)[C@@H]1O [AdoMet],"X-ray crystal structure, 2.8 Å (T-state)",[5],"The regulatory domain was found to bind AdoMet, as expected for the T-state. Unexpectedly, two molecules of AdoMet were found"
same,Kd,[6],~18.8 µM
